# *1 amine or outer side, *2 acyl side, *3 side chain or, on linkers, in order; H or OH if unused. Where a SMILES comes first, the peptide text is derived from it. Bridges are numbered along the chain shown (N, C = ends). [ ]: non-standard residue; d: D form. The star is where a group is joined. Orn(4R-OH,5R-OCH2CH2NMe3+) = C[N+](C)(C)CCO[C@@H](N[*:3])[C@H](O)C[C@H](N[*:1])C(=O)[*:2]; pTerphenylCO(4''-OnC5H11) = CCCCCOc1ccc(-c2ccc(-c3ccc(C(=O)*)cc3)cc2)cc1; hTyr(3S-OH,4S-OH) = N[C@H](C(=O)O)[C@H](O)[C@@H](O)c1ccc(O)cc1; Pro(3S-OH,4S-Me) = C[C@H]1CN[C@H](C(=O)O)[C@H]1O; Hyp = O=C(O)[C@@H]1C[C@@H](O)CN1
# How the values were obtained:
# [1] = Simulated exposure measures after a single 400 mg dose from individual Bayesian PK estimates, with forest plots of covariate effects; assay type: in vivo, human; conditions: for Half-life: from simulated concentrations during week 2 after the last dose; for Clearance: individual model-based estimates (CL); for AUC0–168h / Cmax / Cmin, 168h: single 400 mg IV dose, simulated; for Total volume of distribution at steady state: sum of individual model-based central and peripheral volumes
# Method: To illustrate the relative differences in the impact of the covariates included in the final model on the exposure of rezafungin, forest plots were constructed using simulated exposure for the subjects in the analysis data set, following a single dose of 400 mg. […] Though statistically significant and included in the final model, the GMR rezafungin exposure and 90% CI of each covariate effect were not far outside of the default no effect bounds of 0.8 and 1.25.
# Age was not determined to be a significant covariate of rezafungin exposure. Sixty-three patients were aged 65 years or older, with the oldest patient being […]. Thirty-eight patients were aged 65 to <75, and 25 patients were aged 75 to 89 years old. The GMR (90% CI) of AUC0–168h of these two age groups were 0.95 (0.85, 1.05) and 1.20 (1.06, 1.36), respectively, compared to patients 24 to <65 years old (n = 104). The change in exposure in patients 65 years or older is not deemed clinically meaningful.
# The final PK model of rezafungin, the individual empirical Bayesian PK parameter estimates, and the individual dosing histories were used to simulate dense PK profiles for each subject using the R package mrgsolve ([33]).
# Candida auris = conditions: CLSI MIC, neutropenic mouse, published fAUC0–24 h/MIC target multiplied by 7, ref Lepak et al., 2018 (e01572-18), cited from earlier work
# Method: (§1) TABLE 4 Nonclinical pharmacokinetic/pharmacodynamic targets, by species^a^,^b^,^c | column: Stasis / fAUC0–168h/MIC median; 1-Log drop / fAUC0–168h/MIC median || FIG 4 Probability of pharmacokinetic/pharmacodynamic target attainment for 400 mg rezafungin against Candida species using CLSI methodology. f, free. TEXT PRINTED IN THE PICTURE: no label printed: Candida albicans − fAUC/MIC Targets: CLSI Target: Stasis 20.5; Candida albicans − fAUC/MIC Targets: CLSI Target: 1-Log Drop in CFU 37.2; Candida glabrata − fAUC/MIC Targets: CLSI Target: Stasis 0.5; Candida glabrata − fAUC/MIC Targets: CLSI Target: 1-Log Drop in CFU 2.94; Candida parapsilosis − fAUC/MIC Targets: CLSI Target: Stasis 18.2; Candida auris − fAUC/MIC Targets: CLSI Target: Stasis 12.1; Can ...
# Candida dubliniensis = conditions: CLSI MIC, neutropenic mouse, ref Lepak et al., 2019 (e01556-19), cited from earlier work
# Method: as §1
# Candida glabrata = conditions: CLSI MIC, neutropenic mouse, ref Lepak et al., 2018 (e02154-17), cited from earlier work
# Method: as §1
# Candida albicans = conditions: CLSI MIC, neutropenic mouse, ref Lepak et al., 2018 (e02154-17), cited from earlier work
# Method: as §1
# Candida tropicalis = conditions: CLSI MIC, neutropenic mouse, ref Lepak et al., 2019 (e01556-19), cited from earlier work
# Method: as §1
# Candida parapsilosis = conditions: ref Lepak et al., 2018 (e02154-17), cited from earlier work
# Method: TABLE 4 Nonclinical pharmacokinetic/pharmacodynamic targets, by species^a^,^b^,^c | column: Method; Stasis / fAUC0–168h/MIC median || FIG 4 Probability of pharmacokinetic/pharmacodynamic target attainment for 400 mg rezafungin against Candida species using CLSI methodology. f, free. […] This has been observed for other echinocandins and appears to be limited to nonclinical testing as C. parapsilosis responds well clinically to echinocandin therapy despite the intrinsically elevated MICs of this species ([29]). It is believed that the C. parapsilosis strains utilized in the model (more than 80% of which were not suitable) are highly fit or virulent and therefore may result in elevated targets ([30]).
# [2] = healthy subjects, n = 94, geometric mean (geometric %CV)
# [3] = healthy subjects, n = 94, mean (SD), SD
# [4] = hepatic impairment, uninfected, n = 16, geometric mean (geometric %CV)
# [5] = hepatic impairment, uninfected, n = 16, mean (SD), SD
# [6] = patients, n = 167, geometric mean (geometric %CV)
# [7] = patients, n = 167, mean (SD), SD
smiles,measurement,setting,value
"CCCCCOc1ccc(-c2ccc(-c3ccc(C(=O)N[C@H]4C[C@@H](O)[C@@H](OCC[N+](C)(C)C)NC(=O)[C@@H]5[C@@H](O)[C@@H](C)CN5C(=O)[C@H]([C@@H](C)O)NC(=O)[C@H]([C@H](O)[C@@H](O)c5ccc(O)cc5)NC(=O)[C@@H]5C[C@@H](O)CN5C(=O)[C@H]([C@@H](C)O)NC4=O)cc3)cc2)cc1 [rezafungin] ({pTerphenylCO(4''-OnC5H11)}-[Orn(4R-OH,5R-OCH2CH2NMe3+)]T[Hyp][hTyr(3S-OH,4S-OH)]T[Pro(3S-OH,4S-Me)]; lactam 1-C)",Half-life,[1]; [2],143.368 (9.737) h
same,Half-life,[1]; [3],144.039 (14.027) h
same,Half-life,[1]; [4],132.827 (9.457) h
same,Half-life,[1]; [5],133.372 (12.249) h
same,Half-life,[1]; [6],149.458 (18.095) h
same,Half-life,[1]; [7],151.960 (29.086) h
same,Clearance,[1]; [2],0.229 (20.266) L/h
same,Clearance,[1]; [3],0.234 (0.048) L/h
same,Clearance,[1]; [4],0.336 (21.829) L/h
same,Clearance,[1]; [5],0.343 (0.077) L/h
same,Clearance,[1]; [6],0.328 (38.396) L/h
same,Clearance,[1]; [7],0.350 (0.130) L/h
same,AUC0–168h,[1]; [2],"1,070.513 (20.149) μg × h/mL"
same,Cmax,[1]; [2],21.725 (22.466) μg/mL
same,"Cmin, 168h",[1]; [2],3.247 (22.858) μg/mL
same,AUC0–168h,[1]; [3],"1,091.512 (215.164) μg × h/mL"
same,Cmax,[1]; [3],22.244 (4.789) μg/mL
same,"Cmin, 168h",[1]; [3],3.329 (0.741) μg/mL
same,AUC0–168h,[1]; [4],778.250 (19.012) μg × h/mL
same,Cmax,[1]; [4],17.061 (16.797) μg/mL
same,"Cmin, 168h",[1]; [4],2.113 (25.916) μg/mL
same,AUC0–168h,[1]; [5],791.452 (152.248) μg × h/mL
same,Cmax,[1]; [5],17.291 (3.017) μg/mL
same,"Cmin, 168h",[1]; [5],2.176 (0.533) μg/mL
same,AUC0–168h,[1]; [6],752.507 (35.100) μg × h/mL
same,Cmax,[1]; [6],17.715 (35.418) μg/mL
same,"Cmin, 168h",[1]; [6],2.097 (43.351) μg/mL
same,AUC0–168h,[1]; [7],798.607 (295.120) μg × h/mL
same,Cmax,[1]; [7],18.761 (6.448) μg/mL
same,"Cmin, 168h",[1]; [7],2.292 (1.072) μg/mL
same,"Fold change in AUC0-168h relative to reference, GMR (90% CI)","[1]; single 400 mg dose, Phase 2/3 patients, BMI obese (≥30 kg/m^2), n = 36, vs optimum BMI","0.77 (0.69, 0.86)"
same,"Fold change in AUC0-168h relative to reference, GMR (90% CI)","[1]; single 400 mg dose, Phase 2/3 patients, BMI overweight (25 to <30 kg/m^2), n = 40, vs optimum BMI","0.84 (0.75, 0.94)"
same,"Fold change in AUC0-168h relative to reference, GMR (90% CI)","[1]; single 400 mg dose, Phase 2/3 patients, BMI underweight (<18.5 kg/m^2), n = 17, vs optimum BMI","1.03 (0.88, 1.20)"
same,"Fold change in AUC0-168h relative to reference, GMR (90% CI)","[1]; single 400 mg dose, Phase 2/3 patients, age (y) [65,75), n = 38, vs 24 to <65 years","0.95 (0.85, 1.05)"
same,"Fold change in AUC0-168h relative to reference, GMR (90% CI)","[1]; single 400 mg dose, Phase 2/3 patients, age (y) [75,89], n = 25, vs 24 to <65 years","1.20 (1.06, 1.36)"
same,higher AUC0–168h in female subjects,"[1]; single 400 mg dose, Phase 2/3 patients, female vs male",21%
same,"Fold change in AUC0-168h relative to reference, GMR (90% CI)","[1]; single 400 mg dose, Phase 2/3 patients, kidney failure (CrCL <15 mL/min) vs normal renal function","1.16 (0.96, 1.39)"
same,"Fold change in AUC0-168h relative to reference, GMR (90% CI)","[1]; single 400 mg dose, Phase 2/3 patients, mild renal impairment (CrCL 60 to 89 mL/min) vs normal renal function","0.95 (0.85, 1.06)"
same,"Fold change in AUC0-168h relative to reference, GMR (90% CI)","[1]; single 400 mg dose, Phase 2/3 patients, moderate renal impairment (CrCL 30 to 59 mL/min) vs normal renal function","1.23 (1.11, 1.36)"
same,"Fold change in AUC0-168h relative to reference, GMR (90% CI)","[1]; single 400 mg dose, Phase 2/3 patients, severe renal impairment (CrCL 15 to 29 mL/min) vs normal renal function","1.01 (0.88, 1.16)"
same,Total volume of distribution at steady state,[1]; [2],42.312 (22.744) L
same,Total volume of distribution at steady state,[1]; [3],43.410 (10.265) L
same,Total volume of distribution at steady state,[1]; [4],56.279 (19.744) L
same,Total volume of distribution at steady state,[1]; [5],57.264 (10.702) L
same,Total volume of distribution at steady state,[1]; [6],62.434 (40.964) L
same,Total volume of distribution at steady state,[1]; [7],67.451 (27.744) L
same,"1-Log drop, fAUC0–168h/MIC median",Candida auris; 1-log10 drop in CFU,38.4
same,"Stasis, fAUC0–168h/MIC median",Candida auris; net fungal stasis,12.1
same,"1-Log drop, fAUC0–168h/MIC median",Candida dubliniensis; 1-log10 drop in CFU,228.3
same,"Stasis, fAUC0–168h/MIC median",Candida dubliniensis; net fungal stasis,35.1
same,"1-Log drop, fAUC0–168h/MIC median",Candida glabrata; 1-log10 drop in CFU,2.94
same,"Stasis, fAUC0–168h/MIC median",Candida glabrata; net fungal stasis,0.5
same,"1-Log drop, fAUC0–168h/MIC median",Candida albicans; 1-log10 drop in CFU,37.2
same,"Stasis, fAUC0–168h/MIC median",Candida albicans; net fungal stasis,20.5
same,"1-Log drop, fAUC0–168h/MIC median",Candida tropicalis; 1-log10 drop in CFU,148.9
same,"Stasis, fAUC0–168h/MIC median",Candida tropicalis; net fungal stasis,86.5
same,"Stasis, fAUC0–168h/MIC median","Candida parapsilosis; CLSI MIC, net fungal stasis, neutropenic mouse",18.2
same,maximum effect,Candida parapsilosis; nonclinical model,only achieved stasis
